# Reference: patent US4966900A, “Cephalosporin β-lactam compound and medicinal composition” (priority 1986, dated 1990)
# Where a name gives a salt, the structure may show the parent alone.
# Key:
# Assay in all cases: MIC
# K. pneumoniae 4at521 = conditions: Klebsiella pneumoniae, 4AT521
# P. aeruginosa GN10362 = conditions: Pseudomonas aeruginosa, GN10362
# E. cloacae 5D63-2 = conditions: Enterobacter cloacae, 5D632
# C. freundii 1U589 = conditions: Citrobacter freundii, 1U589
# P. vulgaris GN7919 = conditions: Proteus vulgaris, GN7919
# E. coli GN5482 = conditions: Escherichia coli, GN5482, E. coli GN5482
# C. freundii 1R524 = conditions: Citrobacter freundii, 1R524
# P. cepacia OF189 = conditions: Burkholderia cepacia, OF189, P. cepacia OF189
# P. aeruginosa 4au542 = conditions: Pseudomonas aeruginosa, 4AU542, P. aeruginosa 4au542
# C. freundii 1U692 = conditions: Citrobacter freundii, 1U692
# E. coli ML4707 = conditions: Escherichia coli, ML4707, E. coli ML4707
# C. freundii 1R526 = conditions: Citrobacter freundii, 1R526
# C. freundii 1R527 = conditions: Citrobacter freundii, 1R527
# E. cloacae 5D52-2 = conditions: Enterobacter cloacae, 5D522
# S. aureus Smith = conditions: Staphylococcus aureus
# E. cloacae 1V247 = assay type: cell-based; conditions: Enterobacter cloacae, Table 8
# Description: (§1) The minimum inhibition concentrations (MIC) of the compounds obtained in the respective examples described above were measured according to the standard method of Japanese Chemotherapy Association.
# S. aureus IAA498 = assay type: cell-based; conditions: Staphylococcus aureus
# Description: as §1
# C. freundii GN7391 = conditions: Citrobacter freundii, GN7391, C. freundii GN7391
# C. freundii 5D60-1 = conditions: Citrobacter freundii, 5D601
# E. colacae GN7471 = tested on: E. colacae GN7471
# C. freundii 1R523 = conditions: Citrobacter freundii, 1R523
# E. cloacae 1V25 = conditions: Enterobacter cloacae
# P. aeruginosa 5D58-1 = conditions: Pseudomonas aeruginosa, 5D581, P. aeruginosa 5D58-1
# P. maltophilia OF247 = conditions: Stenotrophomonas maltophilia
# E. cloacae 908RN = conditions: Enterobacter cloacae
# S. marcescens GN10857 = conditions: Serratia marcescens, GN10857, S. marcescens GN10857
# E. cloacae 1Y247 = assay type: cell-based; conditions: Enterobacter cloacae, Table 6, read-out: MIC
# Description: as §1
SMILES,MIC (K. pneumoniae 4at521) [µg/mL],MIC (P. aeruginosa GN10362) [µg/mL],MIC (E. cloacae 5D63-2) [µg/mL],MIC (C. freundii 1U589) [µg/mL],MIC (P. vulgaris GN7919) [µg/mL],MIC (E. coli GN5482; Table 7) [µg/mL],MIC (C. freundii 1R524) [µg/mL],MIC (P. cepacia OF189; Table 7) [µg/mL],MIC (P. aeruginosa 4au542; Table 7) [µg/mL],MIC (C. freundii 1U692) [µg/mL],MIC (E. coli ML4707; Table 7) [µg/mL],MIC (C. freundii 1R526) [µg/mL],MIC (C. freundii 1R527) [µg/mL],MIC (E. cloacae 5D52-2) [µg/mL],MIC (S. aureus Smith; Table 7) [µg/mL],MIC (E. cloacae 1V247) [µg/mL],MIC (S. aureus IAA498; Table 7) [µg/mL],MIC (C. freundii 5D60-1) [µg/mL],MIC (C. freundii 1R523) [µg/mL],MIC (E. cloacae 1V25) [µg/mL],further results
"CC(=O)Oc1ccc(C(=O)NNC(=O)C(C)(C)ON=C(C(=O)NC2C(=O)N3C(C(=O)O)=C(CSc4cc(C)nc5nc(C(=O)O)nn45)CS[C@H]23)c2csc(N)n2)cc1OC(C)=O (stereo partly drawn) [Example 45, 7-{2-[2-Amino-1,3-thiazol-4-yl]-2-[1-(3-(3,4-diacetoxybenzoyl)carbazoyl)-1-methylethoxyimino]acetamido}-3-[(2-carboxy-5-methyl-s-triazolo[1,5-a]pyrimidin-7-yl)thiomethyl]-3-cephem-4-carboxylic acid]",0.05,0.2,0.78,3.13,3.13,0.05,0.78,0.012,0.2,1.56,0.05,1.56,3.13,0.39,12.5,6.25,25,3.13,0.78,6.25,"MIC (C. freundii GN7391; Table 7): 12.5 µg/mL; MIC (E. colacae GN7471; Table 7): 1.56 µg/mL; MIC (P. aeruginosa 5D58-1; Table 7): 0.1 µg/mL; MIC (P. maltophilia OF247; Table 7): 1.56 µg/mL; MIC (E. cloacae 908RN; E. colacae 908RN, Table 7): 1.56 µg/mL; MIC (S. marcescens GN10857; Table 7): 1.56 µg/mL"
"Cc1cc(SCC2=C(C(=O)O)N3C(=O)C(NC(=O)C(=NOC(C)(C)C(=O)NNC(=O)c4ccc(O)c(O)c4)c4csc(N)n4)[C@H]3SC2)n2nc(C)cc2n1 (stereo partly drawn) [Example 57, 7-{2-[2-Amino-1,3-thiazol-4-yl]-2-[1-(3-(3,4-dihydroxybenzoyl)carbazoyl)-1-methylethoxyimino]acetamido}-3-[(2,5-dimethylpyrazolo[1,5-a]pyrimidin-7yl)thiomethyl]-3-cephem-4-carboxylic acid]",0.012,0.1,0.39,3.13,0.78,< 0.006,0.2,0.012,0.1,1.56,< 0.006,1.56,3.13,0.1,1.56,6.25,3.13,1.56,0.2,6.25,"MIC (C. freundii GN7391; Table 7): 3.13 µg/mL; MIC (E. colacae GN7471; Table 7): 1.56 µg/mL; MIC (P. aeruginosa 5D58-1; Table 7): 0.1 µg/mL; MIC (P. maltophilia OF247; Table 7): 1.56 µg/mL; MIC (E. cloacae 908RN; E. colacae 908RN, Table 7): 0.39 µg/mL; MIC (S. marcescens GN10857; Table 7): 1.56 µg/mL"
"Cc1cc(SCC2=C(C(=O)O)N3C(=O)C(NC(=O)C(=NOC(C)(C)C(=O)NNC(=O)c4ccc(O)c(O)c4)c4csc(N)n4)[C@H]3SC2)n2nccc2n1 (stereo partly drawn) [Example 58, 7-{2-[2-Amino-1,3-thiazol-4-yl]-2-[1-(3-(3,4-dihydroxybenzoyl)carbazoyl)-1-methylethoxyimino]acetamido}-3-[(5-methylpyrazolo[1,5-a]pyrimidin-7-yl)thiomethyl]-3-cephem-4-carboxylic acid]",0.012,0.1,0.39,3.13,1.56,< 0.006,0.39,0.012,0.2,1.56,< 0.006,3.13,1.56,0.1,1.56,6.25,3.13,1.56,0.39,6.25,"MIC (C. freundii GN7391; Table 7): 3.13 µg/mL; MIC (E. colacae GN7471; Table 7): 1.56 µg/mL; MIC (P. aeruginosa 5D58-1; Table 7): 0.05 µg/mL; MIC (P. maltophilia OF247; Table 7): 1.56 µg/mL; MIC (E. cloacae 908RN; E. colacae 908RN, Table 7): 0.39 µg/mL; MIC (S. marcescens GN10857; Table 7): 1.56 µg/mL"
"Cc1nc2nc(C(=O)O)nn2c(SCC2=C(C(=O)O)N3C(=O)C(NC(=O)C(=NOC(C)(C)C(=O)NNC(=O)c4ccc(O)c(O)c4)c4csc(N)n4)C3SC2)c1C (stereo not drawn) [Example 41, 7-{2-[2-Amino-1,3-thiazol 4-yl]-2-[1-(3-(3,4-dihydroxybenzoyl)carbazoyl)-1-methylethoxyimino]acetamide}-3-[(2-carboxy-5,6-dimethyl-s-triazolo[1,5-a]pyrimidin-7-yl)-thiomethyl]-3-cephem-4-carboxylic acid.hydrochloride]",< 0.006,0.1,0.1,0.05,0.39,,0.006,,,0.05,,0.025,0.012,0.05,,,,0.1,0.025,1.56,"MIC (E. coli GN5482; Table 5): < 0.006 µg/mL; MIC (P. cepacia OF189; Table 5): < 0.006 µg/mL; MIC (P. aeruginosa 4au542; Table 5): 0.2 µg/mL; MIC (E. coli ML4707; Table 5): < 0.006 µg/mL; MIC (S. aureus Smith; Table 5): 25 µg/mL; MIC (E. cloacae 1Y247): 0.39 µg/mL; MIC (S. aureus IAA498; Table 5): 50 µg/mL; MIC (C. freundii GN7391; Table 5): 0.39 µg/mL; MIC (C. freundii GN7391; Table 6): 0.39 µg/mL; MIC (E. colacae GN7471; Table 5): 0.39 µg/mL; MIC (P. aeruginosa 5D58-1; Table 5): 0.39 µg/mL; MIC (P. maltophilia OF247; Table 5): 0.1 µg/mL; MIC (E. cloacae 908RN; E. cloacae 908RN, Table 6): 0.2 µg/mL; MIC (E. cloacae 908RN; E. colacae 908RN, Table 5): 0.2 µg/mL; MIC (S. marcescens GN10857; Table 5): 0.1 µg/mL"
"Cc1nc2c(C(=O)O)cnn2c(SCC2=C(C(=O)O)N3C(=O)C(NC(=O)C(=NOC(C)(C)C(=O)NNC(=O)c4ccc(O)c(O)c4)c4csc(N)n4)C3SC2)c1C (stereo not drawn) [Example 27, 7-{2-[2-Amino-1,3-thiazol-4-yl]-2-[1-(3-(3,4-dihydroxybenzoyl)carbazoyl)-1-methylethoxyimino]acetamide}-3-[(3-carboxy-5,6-dimethylpyrazolo[1,5-a]pyrimidin-7-yl)thiomethyl]-3-cephem-4-carboxylic acid.hydrochloride]",< 0.006,0.05,0.2,0.39,0.39,,0.1,,,0.2,,0.1,0.1,0.1,,,,6.25,0.2,0.39,"MIC (E. coli GN5482; Table 5): < 0.006 µg/mL; MIC (P. cepacia OF189; Table 5): 0.012 µg/mL; MIC (P. aeruginosa 4au542; Table 5): 0.2 µg/mL; MIC (E. coli ML4707; Table 5): 0.012 µg/mL; MIC (S. aureus Smith; Table 5): 25 µg/mL; MIC (E. cloacae 1Y247): 0.78 µg/mL; MIC (S. aureus IAA498; Table 5): 50 µg/mL; MIC (C. freundii GN7391; Table 5): 0.78 µg/mL; MIC (C. freundii GN7391; Table 6): 0.78 µg/mL; MIC (E. colacae GN7471; Table 5): 0.78 µg/mL; MIC (P. aeruginosa 5D58-1; Table 5): 0.2 µg/mL; MIC (P. maltophilia OF247; Table 5): 0.2 µg/mL; MIC (E. cloacae 908RN; E. cloacae 908RN, Table 6): 0.78 µg/mL; MIC (E. cloacae 908RN; E. colacae 908RN, Table 5): 0.39 µg/mL; MIC (S. marcescens GN10857; Table 5): 0.1 µg/mL"
"CC(C)(ON=C(C(=O)NC1C(=O)N2C(C(=O)O)=C(CSc3c4c(nc5nc(C(=O)O)nn35)CCC4)CSC12)c1csc(N)n1)C(=O)NNC(=O)c1ccc(O)c(O)c1 (stereo not drawn) [Example 33, 7-{2-[2-amino-1,3-thiazol-4-yl]-2-[1-(3-(3,4-dihydroxybenzoyl)carbazoyl)-1-methylethoxyimino]acetamide}-3-[(2-carboxy-6,7-dihydro-5H-cyclopenta[f]-s-triazolo[1,5-a]pyrimidin-8-yl)thiomethyl]-3-cephem-4-carboxylic acid.hydrochloride]",< 0.006,0.05,0.1,0.05,0.2,,0.025,,,0.05,,0.025,0.025,0.1,,,,0.2,0.05,1.56,"MIC (E. coli GN5482; Table 5): < 0.006 µg/mL; MIC (P. cepacia OF189; Table 5): < 0.006 µg/mL; MIC (P. aeruginosa 4au542; Table 5): 0.2 µg/mL; MIC (E. coli ML4707; Table 5): < 0.006 µg/mL; MIC (S. aureus Smith; Table 5): 25 µg/mL; MIC (E. cloacae 1Y247): 1.56 µg/mL; MIC (S. aureus IAA498; Table 5): 25 µg/mL; MIC (C. freundii GN7391; Table 5): 0.39 µg/mL; MIC (C. freundii GN7391; Table 6): 0.78 µg/mL; MIC (E. colacae GN7471; Table 5): 0.39 µg/mL; MIC (P. aeruginosa 5D58-1; Table 5): 0.2 µg/mL; MIC (P. maltophilia OF247; Table 5): 0.1 µg/mL; MIC (E. cloacae 908RN; E. cloacae 908RN, Table 6): 0.2 µg/mL; MIC (E. cloacae 908RN; E. colacae 908RN, Table 5): 0.2 µg/mL; MIC (S. marcescens GN10857; Table 5): 0.05 µg/mL"
